Reference: the NIST ThermoML archive (doi:10.1021/je900182h)
Values joined by “and” are separate entries in the source; they are usually repeats but may differ in a detail not shown here. Equal values may be shown once.

Conditions: Crystal

[Br][Ga]([Br])[Br] [gallium bromide]
Conditions	vapor or sublimation pressure
300 K	7.08e-05 kPa
302.5 K	6.31e-05 kPa and 9.55e-05 kPa
303 K	4.79e-05 kPa
304 K	7.24e-05 kPa
304.5 K	8.51e-05 kPa
305 K	7.24e-05 kPa
306.5 K	9.77e-05 kPa
307 K	0.000141 kPa and 9.77e-05 kPa
307.5 K	0.000126 kPa and 9.55e-05 kPa
308 K	0.000126 kPa
309.5 K	0.000145 kPa
310 K	0.00017 kPa and 0.000123 kPa
310.5 K	0.000141 kPa
311 K	0.00024 kPa
311.7 K	0.000263 kPa
312 K	0.000214 kPa
312.5 K	0.00017 kPa
313 K	0.000257 kPa [middle of 4 runs]
313.5 K	0.000219 kPa
314 K	0.00038 kPa
314.5 K	0.000339 kPa and 0.000219 kPa
315 K	0.000339 kPa [middle of 4 runs]
315.5 K	0.000263 kPa
316 K	0.00038 kPa and 0.000245 kPa
316.5 K	0.000288 kPa
317 K	0.000331 kPa and 0.000295 kPa
317.5 K	0.000525 kPa and 0.000339 kPa
318 K	0.00055 kPa
318.5 K	0.000513 kPa and 0.000339 kPa
319.5 K	0.000589 kPa [middle of 4 runs]
320 K	0.000617 kPa and 0.000363 kPa
321 K	0.000851 kPa and 0.000759 kPa
321.5 K	0.000575 kPa
322 K	0.000759 kPa and 0.000912 kPa and 0.000525 kPa
322.5 K	0.000891 kPa and 0.000589 kPa
323 K	0.0011 kPa and 0.000977 kPa and 0.000661 kPa
323.5 K	0.000724 kPa
324 K	0.0011 kPa [middle of 4 runs]
324.5 K	0.000708 kPa
325 K	0.00141 kPa and 0.000724 kPa
325.5 K	0.000813 kPa
326 K	0.00141 kPa and 0.000832 kPa
326.5 K	0.000955 kPa and 0.000832 kPa
327 K	0.00117 kPa and 0.000977 kPa
327.5 K	0.00151 kPa [middle of 4 runs]
328 K	0.00191 kPa and 0.00105 kPa
328.5 K	0.00178 kPa and 0.000977 kPa
329.5 K	0.00148 kPa and 0.00123 kPa
330 K	0.00251 kPa and 0.00141 kPa and 0.00158 kPa
331 K	0.00263 kPa and 0.00257 kPa
331.5 K	0.00204 kPa
332 K	0.00324 kPa and 0.00191 kPa
332.5 K	0.00174 kPa
333 K	0.00214 kPa [middle of 4 runs]
333.5 K	0.00331 kPa and 0.00204 kPa
334 K	0.00398 kPa and 0.00234 kPa
335 K	0.00437 kPa and 0.00417 kPa and 0.00191 kPa
335.5 K	0.00263 kPa
336 K	0.00324 kPa [middle of 4 runs]
337 K	0.00339 kPa
338 K	0.0055 kPa and 0.00363 kPa and 0.00309 kPa
339.5 K	0.00525 kPa
340 K	0.00407 kPa and 0.00427 kPa and 0.00437 kPa
340.5 K	0.00437 kPa
341 K	0.00759 kPa and 0.00427 kPa
342 K	0.00501 kPa
343 K	0.00759 kPa and 0.00589 kPa
343.5 K	0.00603 kPa
344 K	0.00617 kPa
344.5 K	0.00708 kPa
345 K	0.00661 kPa and 0.00676 kPa
346 K	0.00794 kPa [middle of 4 runs]
346.5 K	0.00871 kPa
347 K	0.0135 kPa
348 K	0.00871 kPa and 0.00955 kPa
349 K	0.01 kPa and 0.012 kPa and 0.0105 kPa
350.5 K	0.0115 kPa
351 K	0.0186 kPa and 0.0117 kPa
352 K	0.0145 kPa
354.5 K	0.0174 kPa
357 K	0.0195 kPa
